# Results from patent publication US20260109721A1, “IONIZABLE CATIONIC LIPIDS INCORPORATING SILICON: SYNTHESIS AND LNP FORMULATION” (priority 2023, published 2026).
# Read-outs that look alike come from different tables or passages of the source.
# Experiments:
# [1] = test system: HepG2 cell line; assay: In vitro toxicity study on HepG2 cell line (resazurin, viability and IC50); type: cell-based, human; conditions: resazurin; for Viability (%) at different lipid concentrations, mean: HepG2 cells, 48 h post-treatment, relative to ethanol vehicle controls; for IC50: lipid toxicity, HepG2, 48 h post-treatment, 6.25-800 μM, read-out: IC50 value, μM (on HepG2 cell)
# In short: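 Resazurin read-out (ex 530/em 580 nm, 5 h at 37 °C) measured lipid toxicity 48 h after dosing HepG2 cells (1000/well) at 6.25–800 μM. Viability was normalised to ethanol vehicle, and IC50 was derived from concentration-response curves.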
# [2] = LNP size, PDI and zeta potential by Dynamic Light Scattering (Method A); type: physicochemical; conditions: LNP formulated with the lipid, DLS
# In short: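 Dynamic light scattering gave size, polydispersity and zeta potential of Method A nanoparticles. These were made from Luc mRNA in 10 mM citrate pH 4.0 combined with ethanol lipid master mix plus ionizable lipid on a dean-type chip (3:1, TFR around 12 ml/min).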
SMILES,"Viability (%) at different lipid concentrations, mean ([1]; 6.25 μM lipid) [%]","Viability (%) at different lipid concentrations, mean ([1]; 12.5 μM lipid) [%]","Viability (%) at different lipid concentrations, mean ([1]; 25 μM lipid) [%]","Viability (%) at different lipid concentrations, mean ([1]; 50 μM lipid) [%]","Viability (%) at different lipid concentrations, mean ([1]; 100 μM lipid) [%]","Viability (%) at different lipid concentrations, mean ([1]; 200 μM lipid) [%]","Viability (%) at different lipid concentrations, mean ([1]; 400 μM lipid) [%]","Viability (%) at different lipid concentrations, mean ([1]; 800 μM lipid) [%]",IC50 ([1]; Homo sapiens) [µM],PDI [2],Size (nm) [2] [nm],Zeta potential (mV) [2] [mV],IC50 [1] [µM]
"CCCCC/C=C\C/C=C\CCCCCCCCOC(CCCCCCC/C=C\C/C=C\CCCCC)O[Si](C)(C)OCCCCCCN(C)CCO (stereo not drawn) [Example 56, (23Z,26Z)-13-((8Z,11Z)-heptadeca-8,11-dien-1-yl)-3,11,11-trimethyl-10,12,14-trioxa-3-aza-11-siladotriaconta-23,26-dien-1-ol]",96.7,94.6,96.5,94.8,99.7,100.1,89.5,36.9,714,0.057,149.5,−10.08,
"CCCCCCCCC(CCCCCC)C(=O)OCCCCCCN(CCCCO)CCCCCCOC(=O)C(CCCCCC)CCCCCCCC (stereo not drawn) [ALC-0315, reference compound]",76.8,97.4,95.4,91.6,84.2,58.9,42.9,20.9,,0.007,131.9,−12.32,299
"CCCCC/C=C\C/C=C\CCCCCCCCOC(CCCCCCC/C=C\C/C=C\CCCCC)O[Si](C)(C)OCCCCCCN(C)CC(O)CO (stereo not drawn) [Example 59, (24Z,27Z)-14-((8Z,11Z)-heptadeca-8,11-dien-1-yl)-4,12,12-trimethyl-11,13,15-trioxa-4-aza-12-silatritriaconta-24,27-diene-1,2-diol]",97.3,100.1,112.6,112.9,76.9,29.0,18.1,8.3,149,0.105,112.8,−8.941,
"CCCCC/C=C\C/C=C\CCCCCCCCOC(CCCCCCC/C=C\C/C=C\CCCCC)O[Si](C)(C)OCCCCCCN1CCOCC1 (stereo not drawn) [Example 55, 4-((20Z,23Z)-10-((8Z,11Z)-heptadeca-8,11-dien-1-yl)-8,8-dimethyl-7,9,11-trioxa-8-silanonacosa-20,23-dien-1-yl)morpholine]",91.7,90.4,92.4,90.9,94.1,90.7,7.9,1.9,316,0.441,319.9,−10.81,
"CCCCCCCC/C=C\CCCCCCCCOC(=O)C(C)(C)CC(OCCCCCCCC/C=C\CCCCCCCC)O[Si](C)(C)OCCCCCCN(CCO)CCN(CCO)CCCCCCO[Si](C)(C)OC(CC(C)(C)C(=O)OCCCCCCCC/C=C\CCCCCCCC)OCCCCCCCC/C=C\CCCCCCCC (stereo not drawn) [Example 96, di((Z)-octadec-9-en-1-yl) 14,17-bis(2-hydroxyethyl)-2,2,6,6,25,25,29,29-octamethyl-4,27-bis(((Z)-octadec-9-en-1-yl)oxy)-5,7,24,26-tetraoxa-14,17-diaza-6,25-disilatriacontanedioate]",98.62,98.94,97.36,96.50,95.63,90.16,67.88,5.80,465,0.14,81.42,−17.77,
"CCCCC/C=C\C/C=C\CCCCCCCCOC(CC[C@@H](C)C1CCC2C3CCC4C[C@H](OC)CC[C@]4(C)C3CC[C@@]21C)O[Si](C)(C)OCCCCCCN(CCO)CCO (stereo partly drawn) [Example 52, (23Z,26Z)-3-(2-hydroxyethyl)-13-((3R)-3-((3R,10S,13R)-3-methoxy-10,13-dimethylhexadecahydro-1H-cyclopenta[a]phenanthren-17-yl)butyl)-11,11-dimethyl-10,12,14-trioxa-3-aza-11-siladotriaconta-23,26-dien-1-ol]",101.2,101.1,104.2,120.8,112.2,76.7,5.3,−0.7,233,0.005,137.6,−9.231,
"CCCCCCCC/C=C\CCCCCCCC(OCCCCCCCCCCCCCCCC)O[Si](C)(C)OCCCCCCN(CCO)CCO (stereo not drawn) [Example 42, (Z)-13-(heptadec-8-en-1-yl)-3-(2-hydroxyethyl)-11,11-dimethyl-10,12,14-trioxa-3-aza-11-silatriacontan-1-ol]",105.1,100.0,98.9,102.2,107.6,117.1,104.2,99.8,> 800,0.059,129.0,−8.408,
"CCCCCCCC/C=C\CCCCCCCCOC(=O)C(C)(C)CC(OCCCCCCCC/C=C\CCCCCCCC)O[Si](C)(C)OCCCCCCN(C)CC(O)CO (stereo not drawn) [Example 92, (Z)-octadec-9-en-1-yl 1,2-dihydroxy-4,12,12,16,16-pentamethyl-14-(((Z)-octadec-9-en-1-yl)oxy)-11,13-dioxa-4-aza-12-silaheptadecan-17-oate]",105.5,104.3,110.6,109.4,98.9,80.7,63.8,49.2,691,0.23,85.81,−12.56,
"CCCCCCCC/C=C\CCCCCCCC(OCCCCCCCCCCCCCCC(C)C)O[Si](C)(C)OCCCCCCN(CCO)CCO (stereo not drawn) [Example 76, (Z)-13-(heptadec-8-en-1-yl)-3-(2-hydroxyethyl)-11,11,29-trimethyl-10,12,14-trioxa-3-aza-11-silatriacontan-1-ol]",101.9,100.5,98.5,100.8,112.3,103.8,77.7,70.0,> 800,0.2,108.4,−19.39,
"CCCCCCCC/C=C\CCCCCCCCOC(=O)C(C)(C)CC(OCCCCCCCC/C=C\CCCCCCCC)O[Si](C)(C)OCCCCCCN(CCO)CCO (stereo not drawn) [Example 84, (Z)-octadec-9-en-1-yl 1-hydroxy-3-(2-hydroxyethyl)-11,11,15,15-tetramethyl-13-(((Z)-octadec-9-en-1-yl)oxy)-10,12-dioxa-3-aza-11-silahexadecan-16-oate]",87.8,99.3,101.8,104.5,103.5,90.4,82.2,88.5,> 800,0.15,71.7,−16.66,
